Measured values from ChEMBL document CHEMBL1275533, “In vitro antibacterial activity of vertilmicin and its susceptibility to modifications by the recombinant AAC6'-APH2'' enzyme” (2008).
Values after ≈ are worked out from the molar mass of the structure shown. Active and inactive are the calls of the source. The rule behind the calls is not given here.

What was measured:
Escherichia coli [1] = assay: Antibacterial activity against non-gentamicin-resistant Escherichia coli clinical isolate after 18 hrs by agar dilution method; assay type: functional
Klebsiella aerogenes [2] = assay: Antibacterial activity against non-gentamicin-resistant Enterobacter aerogenes clinical isolate after 18 hrs by agar dilution method; assay type: functional
Proteus mirabilis = assay: Antibacterial activity against non-gentamicin-resistant Proteus mirabilis clinical isolate after 18 hrs by agar dilution method; assay type: functional
Serratia marcescens = assay: Antibacterial activity against non-gentamicin-resistant Serratia marcescens clinical isolate after 18 hrs by agar dilution method; assay type: functional
Escherichia coli [3] = assay: Antibacterial activity against non-gentamicin-resistant Escherichia coli clinical isolate assessed as susceptible isolates after 18 hrs by agar dilution method; assay type: functional
Citrobacter koseri [4] = assay: Antibacterial activity against non-gentamicin-resistant Citrobacter diversus clinical isolate assessed as susceptible isolates after 18 hrs by agar dilution method; assay type: functional
[5] = test system: Acinetobacter calcoaceticus; assay: Antibacterial activity against non-gentamicin-resistant Acinetobacter calcoaceticus clinical isolate assessed as susceptible isolates after 18 hrs by agar dilution method; assay type: functional
Pseudomonas aeruginosa = assay: Antibacterial activity against non-gentamicin-resistant Pseudomonas aeruginosa clinical isolate assessed as susceptible isolates after 18 hrs by agar dilution method; assay type: functional
Pseudomonas sp. [6] = assay: Antibacterial activity against non-gentamicin-resistant Pseudomonas spp. clinical isolate assessed as susceptible isolates after 18 hrs by agar dilution method; assay type: functional
Haemophilus influenzae = assay: Antibacterial activity against non-gentamicin-resistant Haemophilus influenzae clinical isolate assessed as susceptible isolates after 18 hrs by agar dilution method; assay type: functional, organism-based
[7] = test system: Staphylococcus epidermidis; assay: Antibacterial activity against non-gentamicin-resistant Staphylococcus epidermidis clinical isolate assessed as susceptible isolates after 18 hrs by agar dilution method; assay type: functional
Escherichia coli [8] = assay: Antibacterial activity against gentamicin-resistant Escherichia coli clinical isolate after 18 hrs by agar dilution method; assay type: functional
Citrobacter koseri [9] = assay: Antibacterial activity against gentamicin-resistant Citrobacter diversus clinical isolate after 18 hrs by agar dilution method; assay type: functional
Providencia rettgeri [10] = assay: Antibacterial activity against gentamicin-resistant Proteus rettgeri clinical isolate after 18 hrs by agar dilution method; assay type: functional
[11] = test system: Acinetobacter calcoaceticus; assay: Antibacterial activity against gentamicin-resistant Acinetobacter calcoaceticus clinical isolate after 18 hrs by agar dilution method; assay type: functional
Pseudomonas sp. [12] = assay: Antibacterial activity against gentamicin-resistant Pseudomonas spp. clinical isolate after 18 hrs by agar dilution method; assay type: functional
Enterococcus faecalis = assay: Antibacterial activity against gentamicin-resistant Enterococcus faecalis clinical isolate after 18 hrs by agar dilution method; assay type: functional
Klebsiella aerogenes [13] = assay: Antibacterial activity against gentamicin-resistant Enterobacter aerogenes clinical isolate assessed as susceptible isolates after 18 hrs by agar dilution method; assay type: functional
Citrobacter koseri [14] = assay: Antibacterial activity against gentamicin-resistant Citrobacter diversus clinical isolate assessed as susceptible isolates after 18 hrs by agar dilution method; assay type: functional
Citrobacter freundii = assay: Antibacterial activity against gentamicin-resistant Citrobacter freundii clinical isolate assessed as susceptible isolates after 18 hrs by agar dilution method; assay type: functional
Providencia rettgeri [15] = assay: Antibacterial activity against gentamicin-resistant Proteus rettgeri clinical isolate assessed as susceptible isolates after 18 hrs by agar dilution method; assay type: functional
[16] = test system: Acinetobacter calcoaceticus; assay: Antibacterial activity against gentamicin-resistant Acinetobacter calcoaceticus clinical isolate assessed as susceptible isolates after 18 hrs by agar dilution method; assay type: functional
Klebsiella pneumoniae [17] = assay: Antibacterial activity against Klebsiella pneumoniae isolate 01-21 after 18 hrs by agar dilution method; assay type: functional
Staphylococcus aureus [18] = assay: Antibacterial activity against Staphylococcus aureus ATCC 29213 after 18 hrs by agar dilution method; assay type: functional
[19] = test system: Staphylococcus epidermidis; assay: Antibacterial activity against Staphylococcus epidermidis isolate 01-55 after 18 hrs by agar dilution method; assay type: functional
Escherichia coli [20] = assay: Antibacterial activity against Escherichia coli ATCC 25922 at MIC up to 8 hrs by time-kill study; assay type: functional, organism-based
Klebsiella pneumoniae [21] = assay: Antibacterial activity against Klebsiella pneumoniae isolate 01-21 at 1 MIC up to 8 hrs by time-kill study; assay type: functional, organism-based
Staphylococcus aureus [22] = assay: Bactericidal activity against Staphylococcus aureus ATCC 29213 at >=1 MIC up to 8 hrs by time-kill study; assay type: functional, organism-based
[23] = test system: Staphylococcus epidermidis; assay: Bactericidal activity against Staphylococcus epidermidis isolate 01-55 at >=1 MIC up to 8 hrs by time-kill study; assay type: functional, organism-based
[24] = test system: Escherichia coli BL21(DE3); assay: Phosphorylation activity of AAC(6')-APH(2'') in Escherichia coli BL21(DE3) assessed as oxidation of NADH by pyruvate kinase relative to verdamicin
[25] = test system: Escherichia coli BL21(DE3); assay: Ratio of Vmax to Km for AAC(6')-APH(2'') in Escherichia coli BL21(DE3) assessed as oxidation of NADH by pyruvate kinase relative to netilmicin
[26] = test system: Escherichia coli BL21(DE3); assay: Acetylation activity of AAC(6')-APH(2'') in Escherichia coli BL21(DE3) assessed as production of free pyridine-4-thiolate relative to netilmicin
[27] = test system: Escherichia coli BL21(DE3); assay: Ratio of Vmax to Km for AAC(6')-APH(2'') in Escherichia coli BL21(DE3) assessed as production of free pyridine-4-thiolate relative to netilmicin

NCC[C@H](O)C(=O)N[C@@H]1C[C@H](N)[C@@H](O[C@H]2O[C@H](CN)[C@@H](O)[C@H](O)[C@H]2O)[C@H](O)[C@H]1O[C@H]1O[C@H](CO)[C@@H](O)[C@H](N)[C@H]1O [AMIKACIN]
MIC50 (Escherichia coli [1]): 1 µg/mL (≈ 1.71 µM)
MIC90 (Escherichia coli [1]): 2 µg/mL (≈ 3.42 µM)
MIC50 (Klebsiella aerogenes [2]): 1 µg/mL (≈ 1.71 µM)
MIC90 (Klebsiella aerogenes [2]): 2 µg/mL (≈ 3.42 µM)
MIC50 (Proteus mirabilis): 2 µg/mL (≈ 3.42 µM)
MIC90 (Proteus mirabilis): 4 µg/mL (≈ 6.83 µM)
MIC50 (Serratia marcescens): 1 µg/mL (≈ 1.71 µM)
MIC90 (Serratia marcescens): 2 µg/mL (≈ 3.42 µM)
Activity (Escherichia coli [3]): 100%
Activity (Citrobacter koseri [4]): 100%
Activity [5]: 98%
Activity (Pseudomonas aeruginosa): 100%
Activity (Pseudomonas sp. [6]): 90.9%
Activity (Haemophilus influenzae): inactive
Activity [7]: 98.8%
MIC50 (Escherichia coli [8]): 1 µg/mL (≈ 1.71 µM)
MIC90 (Escherichia coli [8]): 4 µg/mL (≈ 6.83 µM)
MIC50 (Citrobacter koseri [9]): 32 µg/mL (≈ 54.6 µM)
MIC90 (Citrobacter koseri [9]): 64 µg/mL (≈ 109 µM)
MIC50 (Providencia rettgeri [10]): 1 µg/mL (≈ 1.71 µM)
MIC90 (Providencia rettgeri [10]): 32 µg/mL (≈ 54.6 µM)
MIC50 [11]: 16 µg/mL (≈ 27.3 µM)
MIC90 [11]: > 128 µg/mL
MIC50 (Pseudomonas sp. [12]): > 128 µg/mL
MIC90 (Pseudomonas sp. [12]): > 128 µg/mL
MIC50 (Enterococcus faecalis): 128 µg/mL (≈ 219 µM)
MIC90 (Enterococcus faecalis): > 128 µg/mL
Activity (Klebsiella aerogenes [13]): 55%
Activity (Citrobacter koseri [14]): 35.7%
Activity (Citrobacter freundii): 31.6%
Activity (Providencia rettgeri [15]): 80%
Activity [16]: 48%

GENTAMICIN
MIC (Escherichia coli [1]): 0.25 µg/mL
MIC90 (Escherichia coli [1]): 1 µg/mL
MIC50 (Klebsiella aerogenes [2]): 0.25 µg/mL
MIC90 (Klebsiella aerogenes [2]): 0.5 µg/mL
MIC50 (Proteus mirabilis): 0.5 µg/mL
MIC90 (Proteus mirabilis): 1 µg/mL
MIC50 (Serratia marcescens): 0.25 µg/mL
MIC90 (Serratia marcescens): 0.5 µg/mL
Activity (Escherichia coli [3]): 100%
Activity (Citrobacter koseri [4]): 100%
Activity [5]: 98%
Activity (Pseudomonas aeruginosa): 65.6%
Activity (Pseudomonas sp. [6]): 81.8%
Activity (Haemophilus influenzae): inactive
Activity [7]: 92.5%
MIC50 (Escherichia coli [8]): 64 µg/mL
MIC90 (Escherichia coli [8]): > 128 µg/mL
MIC50 (Citrobacter koseri [9]): > 128 µg/mL
MIC90 (Citrobacter koseri [9]): > 128 µg/mL
MIC50 (Providencia rettgeri [10]): 64 µg/mL
MIC90 (Providencia rettgeri [10]): 128 µg/mL
MIC50 [11]: > 128 µg/mL
MIC90 [11]: > 128 µg/mL
MIC50 (Pseudomonas sp. [12]): 128 µg/mL
MIC90 (Pseudomonas sp. [12]): > 128 µg/mL
MIC50 (Enterococcus faecalis): > 128 µg/mL
MIC90 (Enterococcus faecalis): > 128 µg/mL
Activity (Klebsiella aerogenes [13]): 0%
Activity (Citrobacter koseri [14]): 0%
Activity (Citrobacter freundii): 0%
Activity (Providencia rettgeri [15]): 0%
Activity [16]: 0%
MIC (Klebsiella pneumoniae [17]): 0.25 µg/mL
MIC (Staphylococcus aureus [18]): 0.125 µg/mL
MIC [19]: 1 µg/mL
Activity (Escherichia coli [20]): Dose-dependent effect
Activity (Klebsiella pneumoniae [21]): Dose-dependent effect
Activity (Staphylococcus aureus [22]): Dose-dependent effect
Activity [23]: Dose-dependent effect

CCN[C@@H]1C[C@H](N)[C@@H](O[C@H]2OC(CN)=CC[C@H]2N)[C@H](O)[C@H]1O[C@H]1OC[C@](C)(O)[C@H](NC)[C@H]1O [NETILMICIN]
MIC50 (Escherichia coli [1]): 0.5 µg/mL (≈ 1.05 µM)
MIC90 (Escherichia coli [1]): 0.5 µg/mL (≈ 1.05 µM)
MIC50 (Klebsiella aerogenes [2]): 0.5 µg/mL (≈ 1.05 µM)
MIC90 (Klebsiella aerogenes [2]): 1 µg/mL (≈ 2.1 µM)
MIC50 (Proteus mirabilis): 1 µg/mL (≈ 2.1 µM)
MIC90 (Proteus mirabilis): 2 µg/mL (≈ 4.21 µM)
MIC50 (Serratia marcescens): 1 µg/mL (≈ 2.1 µM)
MIC90 (Serratia marcescens): 4 µg/mL (≈ 8.41 µM)
Activity (Escherichia coli [3]): 100%
Activity (Citrobacter koseri [4]): 100%
Activity [5]: 87.8%
Activity (Pseudomonas aeruginosa): 63.9%
Activity (Pseudomonas sp. [6]): 72.7%
Activity (Haemophilus influenzae): inactive
Activity [7]: 100%
MIC50 (Escherichia coli [8]): 8 µg/mL (≈ 16.8 µM)
MIC90 (Escherichia coli [8]): 64 µg/mL (≈ 135 µM)
MIC50 (Citrobacter koseri [9]): > 128 µg/mL
MIC90 (Citrobacter koseri [9]): > 128 µg/mL
MIC50 (Providencia rettgeri [10]): 16 µg/mL (≈ 33.6 µM)
MIC90 (Providencia rettgeri [10]): 128 µg/mL (≈ 269 µM)
MIC50 [11]: 128 µg/mL (≈ 269 µM)
MIC90 [11]: > 128 µg/mL
MIC50 (Pseudomonas sp. [12]): > 128 µg/mL
MIC90 (Pseudomonas sp. [12]): > 128 µg/mL
MIC50 (Enterococcus faecalis): 4 µg/mL (≈ 8.41 µM)
MIC90 (Enterococcus faecalis): > 128 µg/mL
Activity (Klebsiella aerogenes [13]): 30%
Activity (Citrobacter koseri [14]): 7.1%
Activity (Citrobacter freundii): 47.4%
Activity (Providencia rettgeri [15]): 40%
Activity [16]: 20%
Vmax [24]: 55%
Vmax/Km [25]: 7.4%

CN[C@@H]1[C@@H](O)[C@@H](O[C@@H]2[C@@H](O)[C@H](O[C@@H]3OC(C(C)N)=CC[C@@H]3N)[C@@H](N)C[C@H]2N)OC[C@]1(C)O (some centres undefined) [VERDAMICIN]
MIC50 (Escherichia coli [1]): 0.5 µg/mL (≈ 1.08 µM)
MIC90 (Escherichia coli [1]): 0.5 µg/mL (≈ 1.08 µM)
MIC50 (Klebsiella aerogenes [2]): 0.5 µg/mL (≈ 1.08 µM)
MIC90 (Klebsiella aerogenes [2]): 1 µg/mL (≈ 2.17 µM)
MIC50 (Proteus mirabilis): 1 µg/mL (≈ 2.17 µM)
MIC90 (Proteus mirabilis): 2 µg/mL (≈ 4.33 µM)
MIC50 (Serratia marcescens): 0.25 µg/mL (≈ 0.542 µM)
MIC90 (Serratia marcescens): 0.5 µg/mL (≈ 1.08 µM)
Activity (Escherichia coli [3]): 98.1%
Activity (Citrobacter koseri [4]): 100%
Activity [5]: 98%
Activity (Pseudomonas aeruginosa): 86.9%
Activity (Pseudomonas sp. [6]): 100%
Activity (Haemophilus influenzae): inactive
Activity [7]: 75%
MIC50 (Escherichia coli [8]): 32 µg/mL (≈ 69.3 µM)
MIC90 (Escherichia coli [8]): 128 µg/mL (≈ 277 µM)
MIC50 (Citrobacter koseri [9]): > 128 µg/mL
MIC90 (Citrobacter koseri [9]): > 128 µg/mL
MIC50 (Providencia rettgeri [10]): 32 µg/mL (≈ 69.3 µM)
MIC90 (Providencia rettgeri [10]): 128 µg/mL (≈ 277 µM)
MIC50 [11]: > 128 µg/mL
MIC90 [11]: > 128 µg/mL
MIC50 (Pseudomonas sp. [12]): 128 µg/mL (≈ 277 µM)
MIC90 (Pseudomonas sp. [12]): > 128 µg/mL
MIC50 (Enterococcus faecalis): 128 µg/mL (≈ 277 µM)
MIC90 (Enterococcus faecalis): > 128 µg/mL
Activity (Klebsiella aerogenes [13]): 0%
Activity (Citrobacter koseri [14]): 0%
Activity (Citrobacter freundii): 26.3%
Activity (Providencia rettgeri [15]): 20%
Activity [16]: 16%
Vmax [26]: 9.6%
Vmax/Km [27]: 4.5%
